The assay deals with Pin1 (Homo sapiens, UniProt Q13526). Description: SensoLyte Green fluorimetric PPIase activity assay, dose-response. The format is biochemical.
Pin1, sequence (Q13526 whole entry): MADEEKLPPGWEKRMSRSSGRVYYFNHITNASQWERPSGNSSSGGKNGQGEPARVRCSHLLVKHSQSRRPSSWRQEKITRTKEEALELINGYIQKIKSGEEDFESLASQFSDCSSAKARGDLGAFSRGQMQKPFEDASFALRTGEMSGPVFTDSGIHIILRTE

For the compound `CCOC(=O)CN1C(=O)c2ccc3c4c(ccc(c24)C1=O)C(=O)N(CC(=O)OCC)C3=O` [PiB], the EC50 is about 10 µM.

The record behind these values is paper PMC6648297 (ACS Omega, 2019).
